The values below are quoted from earlier work in patent US20220192199A1, “METHOD FOR REMOVING BIOFILM” (KAO CORPORATION, priority 2019, published 2022).

For the data set the following is noted: primary dissociation constant.

On to `O=C(O)CCO` [3-hydoxypropionic acid], for which the pKa1 is recorded as 4.5.

For `O=C(O)[C@H](O)[C@@H](O)[C@H](O)[C@H](O)CO` [gluconic acid], the pKa1 was 3.86.
